One data set deals with Sphaerotheca fuliginea. Kind of data set: Sphaerotheca fuliginea control effect test (Test Example 6, large-volume foliar spray on cucumber). Type of data set: in vivo. Particulars: 200 ppm, flowable (Formulation Example 6), sprayed on cucumber (SAGAMI HANJIRO) before inoculation, 12 days at 23° C. The procedure: Test Examples 1 to 6 are tests using a large amount (about 2000 L/ha) of spray on plants, and the extent of spraying is so that the whole surface of a plant body is completely wet and the sprayed liquid drips.
(§1) In the following tests, compounds of the invention are represented by compound numbers described in Tables 1 to 8. The control effect of a compound of the invention was evaluated by visually observing the area of a lesion on a sample plant in investigation and comparing the area of a lesion in a non-treatment district and the area of a lesion in a districts treated with the compound of the invention.
Sand loam was compacted in a plastic pot, a cucumber (SAGAMI HANJIRO) was seeded and grown in a green house for 12 days. Then, the Compound 1 was formulated into flowable fomulation according the Formulation Example 6, then, diluted with water to provide given concentration (200 ppm), and this was sprayed onto stems and leaves so as to give sufficient adhesion on the surface of cucumber leaves. After spraying, the plant was air-dried, and Sphaerotheca fuliginea spores were inoculated. After inoculation, the plant was first left for 12 days at 23° C., then, the control effect was checked.

The next data set relates to Puccinia striiformis. Put plainly: Puccinia striiformis control test (Test Example 8, small-volume spray 200 L/ha on wheat). Type of data set: in vivo. Particulars: 1000 ppm, emulsifiable formulation (Formulation Example 7), spray amount corresponding to 200 L/ha, wheat (NORIN No. 73), 1 day dark high humidity at 23° C. then 6 days under illumination.
From the text: (§2) Test Examples 7 and 8 are tests using a small amount (corresponding 200 L/ha) of spray on plants, in which fine small liquid drops of a spray are uniformly adhere to the surface of a plant body and the extent of spraying is insufficient to for complete wetting of the surface of a plant body.
(§3) Controlling on a wheat disease in a field is so conducted in some cases that the spray liquid amount is about 200 L/ha. In this case, the amount of the sprayed liquid is insufficient for wetting of the whole plant body, and the sprayed liquid is adheres on a plant as fine liquid drops. For exerting high control effect on the subject diseases even under such spray condition, suitable physicochemical properties such as permeation transfer property, volatility and the like are required in addition to a basic effect.
as §1
(§4) Sand loam was compacted in a plastic pot, a wheat (NORIN No. 73) was seeded and grown in a green house for 10 days. […]

Another data set concerns Erysiphe graminis. Put plainly: Erysiphe graminis control effect test (Test Example 7, small-volume spray 200 L/ha on wheat). The data set is classed as in vivo. Particulars: 1000 ppm, emulsifiable formulation (Formulation Example 7), spray amount corresponding to 200 L/ha, wheat (NORIN No. 73), inoculated one day after, 7 days at 23° C.
From the text: as §2, §3, §1, §4

Turning to `Cc1ccc(-c2ccccc2)cc1Cn1c(C(F)F)nn(C)c1=O` [Compound 1, 5-difluoromethyl-2-methyl-4-(2-methyl-5-phenylbenzyl)-2,4-dihydro-3H-1,2,4-triazol-3-one], the melting point (in general, the temperature, or range, at which the solid turns liquid) is 72.7 °C. In the data set on Sphaerotheca fuliginea, the “lesion area on plants relative to the lesion area of a non-treatment district” value is “not more than 10%”. For the same molecule, in the data set with Puccinia striiformis, the “lesion in the treatment district (control effect)” value is given as “no lesion was recognized at all”. The “lesion in the treatment district (control effect)” value in the data set on Erysiphe graminis is reported as “no lesion was recognized at all”.
In turn, `Cc1ccc(Br)cc1Cn1c(C(F)F)nn(C)c1=O` registered a melting point of 107.6 °C.

Source of the values: patent US6762197B2 (priority 1999, dated 2004).
